Key:
[1] = target: anti-METH monoclonal antibody (mAb) generated from mice immunized with (+)-METH HSMO9 BSA MCV; test: mAb affinity; format: binding, Mus musculus
[2] = target: anti-METH monoclonal antibody (mAb) generated from mice immunized with (+)-METH HSMO9 BSA MCV; test: mAb affinity; format: binding, Mus musculus; remark: listed apart in the source

| Compound | Ki [1] [nM] | Kd [2] [nM] |
| --- | --- | --- |
| CN[C@@H](C)Cc1ccc2c(c1)OCO2 [(+)-MDMA] | 1.1 | – |
| CN[C@@H](C)Cc1ccccc1 [(+)-METH] | – | 6.8 |

Source: paper PMC3141093 (2011)
